Test results reported in patent publication US7045606B2, “Bifunctional chelating agent for actinium” (European Community, priority 2001, dated 2006).

Experiment: complexation properties of chelating agents with 225Ac
Type: physicochemical
Conditions: compared with the non-functionalised chelating agents EDTA, DTPA, DOTA, PEPA, HEHA, HOHEC and EDTMP
Method: Different non-functionalised chelating agents (commercially available or readily synthesised in the laboratory) bearing aminocarboxylate groups (EDTA, DTPA, DOTA, PEPA, HEHA and HOHEC) or aminophosphonate groups (EDTMP) were tested for their complexation properties with ^225Ac. […] Polyaza polycarboxylic macrocycles are known to form thermodynamically stable complexes with large metal ions such as actinides and lanthanides.

complexation properties with ^225Ac: best candidate
SMILES: O=C(O)CN1CCN(CC(=O)O)CCN(CC(=O)O)CCN(CC(=O)O)CCN(CC(=O)O)CCN(CC(=O)O)CCN(CC(=O)O)CCN(CC(=O)O)CC1 [HOTEC, 1,4,7,10,13, 16,19,22-octacarboxylmethyl-1,4,7,10,13,16,19,22-octaazacyclotetracosane]
